In publication PMC10783051 (Microbiology Spectrum, 2023):

System: S. venezuelae supernatant (secreted enzymes)
Test: In vitro degradation of CLPs by S. venezuelae cell-free supernatant
Type: in vitro ADME, Streptomyces venezuelae ATCC 10712
Conditions: pure CLPs (100 µM) incubated 24 h at 30°C with 4% (vol/vol) Sv CFS (grown on ISP2, 0.22-µm filtered), shaking 180 rpm; UPLC-MS/MS with feature-based molecular networking
Protocol: S. venezuelae cultures were performed on ISP2 medium at 28°C (yeast extract 4 g/L, malt extract 10 g/L, glucose 4 g/L, agar 20 g/L; pH 7.3). On 12 × 12 cm Petri square plates, three stripes (1 × 12 cm) of spores were inoculated with a cotton swab [40 µL of spores suspension (10^7 spores/mL) each], spaced by 3 cm each. The plates were left for 7 days of incubation. Next, the agar media was recovered and placed in Falcon tubes at −20°C for 24 h. Then, the agar media were defrosted at room temperature and centrifuged (8,000 rpm for 20 min). Finally, the supernatant leaked from the agar was collected, filtered sterilized (0.22-µm pore size filters) and stored at −20°C until further use. The heat-treated Sv supernatant was generated by incubating an aliquot of the cell-free supernatant of Sv for 10 min at 98°C. The supernatant was then filtered (0.22-µm pore size filters) and stored at −20°C until further use.
[…] Then the solutions were incubated for 24 h at 30°C with continuous shaking (180 rpm). Next, the solution were centrifuged (1 min at 10,000 rpm), filtered (0.22-µm pore size filters), and analyzed by UPLC-MS.
The degradation assays of Pseudomonas CLPs were performed using CFS generated as described above. They were supplemented by 4% (vol/vol) of S. venezuelae CFS prepared as described previously. Next, the solutions were incubated for 24 h at 30°C with continuous shaking (180 rpm). Then, the solution were centrifuged (1 min at 10,000 rpm), filtered (0.22-µm pore size filters), and analyzed by UPLC-MS.
For the CLP degradation kinetic experiments, surfactin, iturin, and fengycin solutions supplemented with S. venezuelae supernatant were prepared following the same protocol. Twenty microliters of solution was sampled at each time point and directly mixed with 80 µL of acetonitrile to stop enzymatic degradation. Finally, they were stored at −20°C until analysis by UPLC-MS.
All UPLC-MS analyses were performed using an Agilent 1290 Infinity II coupled with a diode array detector and a mass detector (Jet Stream ESI-Q-TOF 6530) in positive mode with the parameters set up as follows: capillary voltage of 3.5 kV, nebulizer pressure of 35 lb/in^2, drying gas of 8 L/min, drying gas temperature of 300°C, flow rate of sheath gas of 11 L/min, sheath gas temperature of 350°C, fragmentor voltage of 175 V, skimmer voltage of 65 V, and octopole radiofrequency of 750 V. Accurate mass spectra were recorded in the m/z range of 300–1,700. For untargeted MS/MS, we used the same MS1 parameters as described. We added MS2 untargeted acquisition mode with the parameters as follows: MS/MS range 50–1,700 m/z; MS/MS scan rate 3 spectra/s; isolation width MS/MS medium (approx. 4 AMU), Decision Engine Native; fixed collision energies of 25 and 40 V for surfactin, 50 V for iturin, and 60 V for fengycin experiments; precursor selection: three for the surfactin experiment, four for the iturin and fengycin experiments, threshold 1,500 (Abs), isotope model common, active exclusion after two spectra and release after 0.5 min, sorting the precursors by charge state then abundance (charge state preference 1). For targeted MS/MS, we used the same MS1 parameters MS/MS range of 50–1,700 m/z or 50–3,200 (when required for Pseudomonas CLPs with mass >1,700 Da), MS/MS scan rate 3 spectra/s, isolation width MS/MS narrow (approx. 1.3 amu), and fixed collision energies 20, 40, and 60V. In all experiments, a C18 Acquity UPLC ethylene bridged hybrid column (2.1 mm × 50 mm × 1.7 µm; Waters Corporation, Milford, MA, USA) was used at a flow rate of 0.6 mL/min and a temperature of 40°C. The injection volume was 20 µL, and the diode array detector scanned a wavelength spectrum between 190 and 600 nm. Unless otherwise mentioned, a gradient of acidified water (0.1% formic acid) (solvent A) and of acidified acetonitrile (0.1% formic acid) (solvent B) was used as mobile phase with a constant flow rate of 0.6 mL/min, starting at 10% B and rising to 100% B in 20 min. […]

Substance: iturin
- degradation of pure Bacillus CLPs by Sv CFS: degrades
